Patent US12409171B2, “Pharmaceutically active pyrazolo-pyridone modulators of DCN1/2-mediated cullin neddylation” (UNIVERSITY OF KENTUCKY RESEARCH FOUNDATION, priority 2019, dated 2025)

target: DCN1 (Homo sapiens (Human), UniProt Q96GG9); assay: TR-FRET binding assay (biotin-DCN1 / Ac-UBE2M12-AlexaFluor488); details: mean ± SD (n); read-out: DCN1_TRFRET Mean EC50
Method: • IC50 values were generated using our TR-FRET binding assay and are represented as the mean of three replicates with errors reported as the standard deviation.
The assay cocktail was then incubated for 1 h at room temperature and distributed using a WellMate instrument (Matrix). Compounds to be screened were added to assay plates from DMSO stock solutions by pin transfer using 50SS pins (V&P Scientific). […] All compounds were tested in triplicate or more.

Chain of DCN1 (Q96GG9 whole entry): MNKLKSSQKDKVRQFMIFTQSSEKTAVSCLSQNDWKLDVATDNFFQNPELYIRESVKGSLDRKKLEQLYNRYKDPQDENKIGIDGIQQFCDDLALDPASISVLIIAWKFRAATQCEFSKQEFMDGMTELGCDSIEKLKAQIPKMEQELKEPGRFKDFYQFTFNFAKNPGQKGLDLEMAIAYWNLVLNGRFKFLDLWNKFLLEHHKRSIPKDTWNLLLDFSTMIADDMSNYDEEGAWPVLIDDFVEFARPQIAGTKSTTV

SMILES	EC50 [nM]
CCN1C(=O)[C@@H](NC(=O)c2cccc(C)c2)[C@@H](c2ccc(F)cc2)c2c(C)nn(C(C)C)c21 [RG-0008860, N-[(4S,5S)-7-ethyl-4-(4-fluorophenyl)-3-methyl-6-oxo-1-(propan-2-yl)-1H,4H,5H,6H,7H-pyrazolo[3,4-b]pyridin-5-yl]-3-methylbenzamide]	467 ± 28
CCN1C(=O)[C@@H](NC(=O)c2cccc(C(F)(F)F)c2)[C@@H](c2ccc(F)cc2)c2c(CN3CCN(CC(F)(F)F)CC3)nn(-c3ccccc3)c21 [RG-0014150, N-[(4S,5S)-7-ethyl-4-(4-fluorophenyl)-6-oxo-1-phenyl-3-{[4-(2,2,2-trifluoroethyl)piperazin-1-yl]methyl}-1H,4H,5H,6H,7H-pyrazolo[3,4-b]pyridin-5-yl]-3-(trifluoromethyl)benzamide]	173 ± 21.9
CCN1C(=O)[C@@H](NC(=O)c2cccc(C(F)(F)F)c2)[C@@H](c2ccc(F)cc2)c2c(CN3CCCC3)nn(-c3ccccc3)c21 [RG-0014154, N-[(4S,5S)-7-ethyl-4-(4-fluorophenyl)-6-oxo-1-phenyl-3-[(pyrrolidin-1-yl)methyl]-1H,4H,5H,6H,7H-pyrazolo[3,4-b]pyridin-5-yl]-3-(trifluoromethyl)benzamide]	83.5 ± 9.39
CCN1C(=O)[C@@H](NC(=O)c2cccc(S(C)(=O)=O)c2)[C@@H](c2ccc(F)cc2)c2c(C)nn(-c3ccccc3)c21 [RG-0013977, N-[(4S,5S)-7-ethyl-4-(4-fluorophenyl)-3-methyl-6-oxo-1-phenyl-1H,4H,5H,6H,7H-pyrazolo[3,4-b]pyridin-5-yl]-3-methanesulfonylbenzamide]	> 36500
CCCN1C(=O)[C@@H](NC(=O)c2cccc(C)c2)[C@@H](c2ccc(F)cc2)c2c(C)nn(CCC)c21 [RG-0008666, N-[(4S,5S)-4-(4-fluorophenyl)-3-methyl-6-oxo-1,7-dipropyl-1H,4H,5H,6H,7H-pyrazolo[3,4-b]pyridin-5-yl]-3-methylbenzamide]	1170 ± 99.3
CCN1C(=O)[C@@H](NC(=O)c2cccc(C(F)(F)F)c2)[C@@H](c2ccc(F)cc2)c2c(CNS(=O)(=O)NC(=O)OC(C)(C)C)nn(-c3ccccc3)c21 [RG-0014160, tert-butyl N-({[(4S,5S)-7-ethyl-4-(4-fluorophenyl)-6-oxo-1-phenyl-5-[3-(trifluoromethyl)benzamido]-1H,4H,5H,6H,7H-pyrazolo[3,4-b]pyridin-3-yl]methyl}sulfamoyl)carbamate]	194 ± 19.9
CCC(C)n1nc(C)c2c1N(C(C)=O)C(=O)[C@@H](NC(=O)c1cccc(C)c1)[C@H]2c1ccc(F)cc1 (stereo partly drawn) [RG-0005665, N-[(4S,5S)-7-acetyl-1-(butan-2-yl)-4-(4-fluorophenyl)-3-methyl-6-oxo-1H,4H,5H,6H,7H-pyrazolo[3,4-b]pyridin-5-yl]-3-methylbenzamide]	5310 ± 850
CC(=O)N1C(=O)[C@@H](NC(=O)c2cccc(C)c2)[C@@H](c2ccc(F)cc2)c2c(C)nn(-c3ccccc3)c21 [RG-0005656, N-[(4S,5S)-7-acetyl-4-(4-fluorophenyl)-3-methyl-6-oxo-1-phenyl-1H,4H,5H,6H,7H-pyrazolo[3,4-b]pyridin-5-yl]-3-methylbenzamide]	5640 ± 827
CCN1C(=O)[C@@H](NC(=O)c2cccc(C(F)(F)F)c2)[C@@H](c2ccc(F)cc2)c2c(CNC(=O)CCOCCOCCNC(=O)CCCC[C@@H]3SC[C@@H]4NC(=O)N[C@@H]43)nn(-c3ccccc3)c21 [RG-0014159, N-[(4S,5S)-3-({3-[2-(2-{5-[(3aS,4S,6aR)-2-oxo-hexahydro-1H-thieno[3,4-d]imidazol-4-yl]pentanamido}ethoxy)ethoxy]propanamido}methyl)-7-ethyl-4-(4-fluorophenyl)-6-oxo-1-phenyl-1H,4H,5H,6H,7H-pyrazolo[3,4-b]pyridin-5-yl]-3-(trifluoromethyl)benzamide]	89.6 ± 10.9
CCN1C(=O)[C@@H](NC(=O)c2cccc(C)c2)[C@@H](C(C)C)c2c(C)nn(-c3ccccc3)c21 [RG-0008876, N-[(4S,5S)-7-ethyl-3-methyl-6-oxo-1-phenyl-4-(propan-2-yl)-1H,4H,5H,6H,7H-pyrazolo[3,4-b]pyridin-5-yl]-3-methylbenzamide]	1750 ± 165
